The values below are quoted from earlier work in paper PMC6259197, “Alkaloids from Stems of Esenbeckia leiocarpa Engl. (Rutaceae) as Potential Treatment for Alzheimer Disease” (Molecules, 2010).

Data set [1] relates to Leucoagaricus gongylophorus. On the set-up: method as in doi:10.1590/S0103-50532002000100010. Conditions: alkaloids from Raulinoa echinata; symbiotic fungus of leaf-cutting ants.
Data set [2] has as its system brine shrimp. Conditions: alkaloids isolated from leaves of E. belizencis.
Data set [3] deals with Pectinophora gossypiella. Also noted: method as in PMID 1965201. The conditions noted are these: activity of extract attributed to leiokinine A and B.

In the case of `COc1c2ccoc2nc2c(OC)c3c(cc12)OCO3` [flindersiamine], the “antifungal activity against Leucoagaricus gongylophorus” value in data set [1] was “antifungal activity”. Moreover, the “brine shrimp toxicity LC50” value in data set [2] is on record as > 1,000 ppm.

For `COc1cc2nc3occc3c(OC)c2cc1OC` [kokusaginine], the mutagenic activity entry is “weak mutagenic activity”. The “antifungal activity against Leucoagaricus gongylophorus” value in data set [1] was “antifungal activity”. Further, the “brine shrimp toxicity LC50” value in data set [2] is reported as 367 ppm.

As for `CCCc1c(OC)c(=O)c2ccccc2n1C` [leiokinine A], in data set [3], the “antifeedant activity against pink bollworm” value is “weak antifeedant activity”.

Take `COc1c2cc3c(cc2nc2occc12)OCO3` [maculine]: the “antifungal activity against Leucoagaricus gongylophorus” value in data set [1] was “antifungal activity”.

Regarding `COc1ccc2c(OC)c3ccoc3nc2c1OC` [skimmianine], the mutagenic activity result was “weak mutagenic activity”. Besides, the “antifungal activity against Leucoagaricus gongylophorus” value in data set [1] is “antifungal activity”.

On to leiokinine B, for which, in data set [3], the “antifeedant activity against pink bollworm” value is given as “weak antifeedant activity”.
